Results as given in PubChem BioAssay (NCI).
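Assay format: 96-well plates, 48-hour exposure. Here, GI50 denotes the concentration required for 50% inhibition of growth. TGI is the concentration that stops growth completely.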

Columns and labels:
Test in all cases: inhibition of tumour cell growth, NCI panel, 48 h
[1] = system: PC-3 prostate
[2] = system: HCT-116 colon
[3] = system: ACHN renal
[4] = system: K-562 leukemia
[5] = system: SF-268 CNS
[6] = system: NCI/ADR-RES ovarian
[7] = system: UO-31 renal
[8] = system: HOP-92 NSCLC
[9] = system: MCF7 breast
[10] = system: NCI-H522 lung
[11] = system: LOX IMVI melanoma
[12] = system: DU-145 prostate
[13] = system: MOLT-4 leukemia
[14] = system: MALME-3M melanoma
[15] = system: A498 renal
[16] = system: M14 melanoma
[17] = system: HCT-15 colon
[18] = system: SR leukemia

SMILES	TGI [1] [µM]	TGI [2] [µM]	TGI [3] [µM]	TGI [4] [µM]	TGI [5] [µM]	TGI [6] [µM]	TGI [7] [µM]	TGI [8] [µM]	TGI [9] [µM]	TGI [10] [µM]	TGI [11] [µM]	TGI [12] [µM]	TGI [13] [µM]	GI50 [14] [µM]	TGI [14] [µM]	GI50 [15] [µM]	TGI [15] [µM]	TGI [16] [µM]	TGI [17] [µM]	TGI [18] [µM]
Cc1ccc2cc3c(ccc4ccccc43)c3c2c1CC3	> 100	> 100	> 100	> 100	> 100	> 100	> 100	> 100	> 18.3	> 100	> 100	> 100	> 100	> 100	> 100	> 100	> 100	> 100	> 100	> 100
CCCCNc1c(CN)cnc2cc(Cl)ccc12	43.1	35.9	58.7	32.1	57.6	32	–	35.1	27.6	34.5	29.9	86.8	36.5	–	34	–	28.7	36.6	33.1	–
Nc1ccc(C2NC(=O)Cc3c2ccc2ccccc32)cc1 (stereo not drawn)	> 100	> 100	> 100	> 100	> 100	–	> 100	> 100	> 100	> 100	> 100	> 100	> 100	–	> 100	–	> 100	> 100	> 100	> 100
NC(=O)NO	> 2500	> 2500	2060	> 2260	2340	2400	1870	2330	> 2460	2270	> 2430	> 2500	2100	–	2480	–	1990	1950	2360	1620
C=CCOC1OC(CS(=O)(=O)O)C(O)C(O)C1O (stereo not drawn)	> 100	> 100	–	> 100	–	> 100	> 100	> 100	> 100	–	> 100	> 100	> 100	–	> 100	–	> 100	> 100	> 100	> 100
O=C(O)C(O)Cc1ccccn1 (stereo not drawn)	> 100	–	> 100	> 100	> 100	> 100	> 100	> 100	> 100	> 100	> 100	> 100	–	–	> 100	–	> 100	> 100	> 100	> 100
COc1ccc2oc(=O)cc(C)c2c1	> 100	> 100	> 100	> 100	> 100	> 100	> 100	> 100	> 100	> 100	> 100	> 100	> 100	–	> 100	–	> 100	> 100	–	> 100
COc1ccccc1N1C(Cl)C(=O)C1c1c[nH]c2ccccc12 (stereo not drawn)	–	> 100	–	> 100	> 100	–	> 100	> 100	–	> 100	–	–	> 100	–	–	–	–	> 100	–	> 100
COc1ccc(C2C(=O)C(Cl)N2Nc2nc(C)cc(=O)[nH]2)cc1OC (stereo not drawn)	–	> 100	> 100	> 100	> 100	–	> 100	81.7	–	–	> 100	–	> 100	–	–	–	–	> 100	> 100	> 100
CS/C(=N\C(=S)Nc1ccccc1)Nc1ccccc1	–	–	70.7	> 100	> 100	–	43.1	–	–	38	38.2	–	85.7	–	60.4	–	81.5	96.1	58.1	64.1
c1ccc(C(c2ccccc2)[P+](c2ccccc2)(c2ccccc2)c2ccccc2)cc1	–	5.02	–	10.1	15.3	> 100	7.95	2.79	11.9	1.14	1.52	–	4.06	–	14.7	–	8.62	–	17.9	–
FC(F)(F)C(C1=NC(C(F)(F)F)(C(F)(F)F)N=C(N2CCOCC2)O1)C(F)(F)F	63.2	> 100	49.3	–	> 100	49.4	> 100	> 100	–	46.2	63.8	> 100	> 100	–	–	–	–	60.5	> 100	61.2
